# What was measured:
# [1] = tested on: MCF7/ADR-RES; test: NCI human tumor cell panel: MCF7/ADR-RES (Breast Cancer); type: cell-based
# [2] = tested on: SW-620; test: NCI human tumor cell panel: SW-620 (Colon Cancer); type: cell-based
# [3] = tested on: ACHN; test: NCI human tumor cell panel: ACHN (Renal Cancer); type: cell-based
# [4] = tested on: A498; test: NCI human tumor cell panel: A498 (Renal Cancer); type: cell-based
# [5] = tested on: NCI-H460; test: NCI human tumor cell panel: NCI-H460 (Non-Small Cell Lung Cancer); type: cell-based
# [6] = tested on: SF-539; test: NCI human tumor cell panel: SF-539 (CNS Cancer); type: cell-based
# [7] = tested on: TK-10; test: NCI human tumor cell panel: TK-10 (Renal Cancer); type: cell-based
# [8] = tested on: A549/ATCC; test: NCI human tumor cell panel: A549/ATCC (Non-Small Cell Lung Cancer); type: cell-based; settings: read-out: Log10 TGI (converted)
# [9] = tested on: SK-MEL-2; test: NCI human tumor cell panel: SK-MEL-2 (Melanoma); type: cell-based
# [10] = tested on: MDA-MB-435; test: NCI human tumor cell panel: MDA-MB-435 (Breast Cancer); type: cell-based
# [11] = tested on: 786-0; test: NCI human tumor cell panel: 786-0 (Renal Cancer); type: cell-based; settings: 786-0, read-out: Log10 TGI (converted)
# [12] = tested on: SK-MEL-5; test: NCI human tumor cell panel: SK-MEL-5 (Melanoma); type: cell-based
# [13] = tested on: OVCAR-3; test: NCI human tumor cell panel: OVCAR-3 (Ovarian Cancer); type: cell-based
# [14] = tested on: MOLT-4; test: NCI human tumor cell panel: MOLT-4 (Leukemia); type: cell-based
# [15] = tested on: SF-295; test: NCI human tumor cell panel: SF-295 (CNS Cancer); type: cell-based; settings: SF-295, read-out: Log10 GI50 (converted)
# [16] = tested on: SK-MEL-28; test: NCI human tumor cell panel: SK-MEL-28 (Melanoma); type: cell-based
# [17] = tested on: NCI-H522; test: NCI human tumor cell panel: NCI-H522 (Non-Small Cell Lung Cancer)
# [18] = tested on: RPMI-8226; test: NCI human tumor cell panel: RPMI-8226 (Leukemia); type: cell-based
# [19] = tested on: EKVX; test: NCI human tumor cell panel: EKVX (Non-Small Cell Lung Cancer); type: cell-based
# [20] = tested on: UO-31; test: NCI human tumor cell panel: UO-31 (Renal Cancer); type: cell-based
# [21] = tested on: NCI-H23; test: NCI human tumor cell panel: NCI-H23 (Non-Small Cell Lung Cancer); type: cell-based; settings: NCI-H23, read-out: Log10 GI50 (converted)
# [22] = tested on: BT-549; test: NCI human tumor cell panel: BT-549 (Breast Cancer); type: cell-based
# [23] = tested on: HCT-116; test: NCI human tumor cell panel: HCT-116 (Colon Cancer); type: cell-based
# [24] = tested on: IGROV1; test: NCI human tumor cell panel: IGROV1 (Ovarian Cancer); type: cell-based
# [25] = tested on: OVCAR-8; test: NCI human tumor cell panel: OVCAR-8 (Ovarian Cancer); type: cell-based
# [26] = tested on: U251; test: NCI human tumor cell panel: U251 (CNS Cancer); type: cell-based
# [27] = tested on: NCI-H322M; test: cells; type: cell-based; settings: Homo sapiens
# [28] = tested on: M14; test: NCI human tumor cell panel: M14 (Melanoma); type: cell-based
# [29] = tested on: SNB-75; test: NCI human tumor cell panel: SNB-75 (CNS Cancer); type: cell-based
# [30] = tested on: MDA-N; test: NCI human tumor cell panel: MDA-N (Breast Cancer); type: cell-based
# [31] = tested on: HT29; test: NCI human tumor cell panel: HT29 (Colon Cancer); type: cell-based
# [32] = tested on: LOX IMVI; test: NCI human tumor cell panel: LOX IMVI (Melanoma); type: cell-based
# [33] = read-out: Log10 GI50 (converted)
# [34] = read-out: Log10 TGI (converted)
compound,measurement,setting,value
O=Cc1ccc(-c2ccc(-c3ccc(C=O)[se]3)s2)s1 [compound 688829],GI50,[1]; [33],30.2 µM
same,IC (TGI),[1]; [34],> 100 µM
same,GI50,"[2]; SW-620, read-out: Log10 GI50 (converted)",0.832 µM
same,IC (TGI),"[2]; SW-620, read-out: Log10 TGI (converted)",> 100 µM
same,GI50,[3]; [33],> 100 µM
same,IC (TGI),[3]; [34],> 100 µM
same,GI50,"[4]; A498, read-out: Log10 GI50 (converted)",0.0214 µM
same,IC (TGI),"[4]; A498, read-out: Log10 TGI (converted)",0.0794 µM
same,GI50,"[5]; NCI-H460, read-out: Log10 GI50 (converted)",0.141 µM
same,IC (TGI),"[5]; NCI-H460, read-out: Log10 TGI (converted)",> 100 µM
same,GI50,"[6]; SF-539, read-out: Log10 GI50 (converted)",27.5 µM
same,IC (TGI),"[6]; SF-539, read-out: Log10 TGI (converted)",> 100 µM
same,GI50,"[7]; TK-10, read-out: Log10 GI50 (converted)",0.0282 µM
same,IC (TGI),"[7]; TK-10, read-out: Log10 TGI (converted)",0.209 µM
same,IC (TGI),[8],> 100 µM
same,GI50,"[9]; SK-MEL-2, read-out: Log10 GI50 (converted)",33.9 µM
same,IC (TGI),"[9]; SK-MEL-2, read-out: Log10 TGI (converted)",> 100 µM
same,GI50,"[10]; MDA-MB-435, read-out: Log10 GI50 (converted)",33.1 µM
same,IC (TGI),"[10]; MDA-MB-435, read-out: Log10 TGI (converted)",> 100 µM
same,IC (TGI),[11],26.9 µM
same,GI50,"[12]; SK-MEL-5, read-out: Log10 GI50 (converted)",23.4 µM
same,IC (TGI),"[12]; SK-MEL-5, read-out: Log10 TGI (converted)",> 100 µM
same,GI50,"[13]; OVCAR-3, read-out: Log10 GI50 (converted)",0.129 µM
same,IC (TGI),"[13]; OVCAR-3, read-out: Log10 TGI (converted)",0.631 µM
same,GI50,"[14]; MOLT-4, read-out: Log10 GI50 (converted)",57.5 µM
same,IC (TGI),"[14]; MOLT-4, read-out: Log10 TGI (converted)",> 100 µM
same,GI50,[15],> 100 µM
same,GI50,"[16]; SK-MEL-28, read-out: Log10 GI50 (converted)",66.1 µM
same,IC (TGI),"[16]; SK-MEL-28, read-out: Log10 TGI (converted)",> 100 µM
same,GI50,"[17]; NCI-H522, read-out: Log10 GI50 (converted)",11.2 µM
same,IC (TGI),"[17]; NCI-H522, read-out: Log10 TGI",39.8 µM
same,GI50,"[18]; RPMI-8226, read-out: Log10 GI50 (converted)",38.9 µM
same,IC (TGI),"[18]; RPMI-8226, read-out: Log10 TGI",> 100 µM
same,GI50,[19]; [33],> 100 µM
same,IC (TGI),[19]; [34],> 100 µM
same,GI50,"[20]; UO-31, read-out: Log10 GI50 (converted)",> 100 µM
same,IC (TGI),"[20]; UO-31, read-out: Log10 TGI (converted)",> 100 µM
same,GI50,[21],> 100 µM
same,GI50,"[22]; BT-549, read-out: Log10 GI50 (converted)",56.2 µM
same,IC (TGI),"[22]; BT-549, read-out: Log10 TGI (converted)",> 100 µM
same,GI50,"[23]; HCT-116, read-out: Log10 GI50 (converted)",0.295 µM
same,IC (TGI),"[23]; HCT-116, read-out: Log10 TGI (converted)",> 100 µM
same,GI50,"[24]; IGROV-1, IGROV1, read-out: Log10 GI50 (converted)",0.178 µM
same,IC (TGI),"[24]; IGROV-1, IGROV1, read-out: Log10 TGI (converted)",2.45 µM
same,GI50,"[25]; OVCAR-8, read-out: Log10 GI50 (converted)",15.1 µM
same,IC (TGI),"[25]; OVCAR-8, read-out: Log10 TGI (converted)",93.3 µM
same,GI50,"[26]; U-251, U251, read-out: Log10 GI50 (converted)",0.245 µM
same,IC (TGI),"[26]; U-251, U251, read-out: Log10 TGI (converted)",25.7 µM
same,GI50,[27]; [33],27.5 µM
same,IC (TGI),[27]; [34],89.1 µM
same,GI50,"[28]; M14, read-out: Log10 GI50 (converted)",20 µM
same,IC (TGI),"[28]; M14, read-out: Log10 TGI (converted)",> 100 µM
same,GI50,"[29]; SNB-75, read-out: Log10 GI50 (converted)",75.9 µM
same,IC (TGI),"[29]; SNB-75, read-out: Log10 TGI (converted)",> 100 µM
same,GI50,[30]; [33],20.9 µM
same,IC (TGI),[30]; [34],> 100 µM
same,GI50,"[31]; HT-29, HT29, read-out: Log10 GI50 (converted)",23.4 µM
same,IC (TGI),"[31]; HT-29, HT29, read-out: Log10 TGI (converted)",> 100 µM
same,GI50,[32]; [33],16.6 µM
same,IC (TGI),[32]; [34],> 100 µM

# Source: patent US20040063662A1, “Selenophene anti-tumor agents” (priority 1996, published 2004)
